This note sets out measurements from US9502658B2, “Fullerene derivatives and related materials, methods, and devices” (Nano-C, Inc., priority 2013, dated 2016).

SMILES strings stand for the structures. Converted amounts (≈) assume the structure as drawn.

This series is described as follows: Solubility in o-dichlorobenzene by UV-vis absorbance at 360 nm. The following applies: for solubility in o-dichlorobenzene: room temperature (about 22° C.).

Turning to `CCCCCCCC1c2ccccc2C(CCCCCCC)C23c4c5c6c7c8c9c(c%10c%11c2c2c4c4c%12c5c5c6c6c8c8c%13c9c9c%10c%10c%11c%11c2c2c4c4c%12c%12c5c5c6c8c6c8c%13c9c9c%10c%10c%11c2c2c4c4c%12c5c6c5c8c9c%10c2c45)C713` (centres unmarked) [Fullerene 5], the solubility in o-dichlorobenzene was found to be 20 mg/mL (≈ 19.6 mM).

With `CCCCCCC1c2ccccc2C(CCCCCC)C23c4c5c6c7c8c9c(c%10c%11c2c2c4c4c%12c5c5c6c6c8c8c%13c9c9c%10c%10c%11c%11c2c2c4c4c%12c%12c5c5c6c8c6c8c%13c9c9c%10c%10c%11c2c2c4c4c%12c5c6c5c8c9c%10c2c45)C713` (centres unmarked) [Fullerene 4], the solubility in o-dichlorobenzene was 45 mg/mL (≈ 45.3 mM).

`CCCCC1c2ccccc2C(CCCC)C23c4c5c6c7c8c9c(c%10c%11c2c2c4c4c%12c5c5c6c6c8c8c%13c9c9c%10c%10c%11c%11c2c2c4c4c%12c%12c5c5c6c8c6c8c%13c9c9c%10c%10c%11c2c2c4c4c%12c5c6c5c8c9c%10c2c45)C713` (centres unmarked) [Fullerene 3] gave a solubility in o-dichlorobenzene of 9.3 mg/mL (≈ 9.92 mM).

Molecule `c1ccc2c(c1)CC13c4c5c6c7c8c9c(c%10c%11c1c1c%12c4c4c%13c5c5c7c7c8c8c%14c9c%10c9c%10c%11c1c1c%11c%12c4c4c%12c%13c5c5c7c7c8c8c%14c9c9c%10c1c1c%11c4c4c%12c5c7c5c8c9c1c45)C63C2` (centres unmarked) [oQDM-C60, reference compound] gave a solubility in o-dichlorobenzene of 5.8 mg/mL (≈ 7.03 mM). Further, the “solubility in common organic solvents” value (in words, compared to the fullerenes according to the invention) is “lower solubility”.
